Measurements: EP1020531A2, “Use of spore adhesion assays in fungicide screening” (priority 1999, dated 2000)
Values after ≈ are worked out from the molar mass of the structure shown.

What follows are compounds tested on Magnaporthe grisea (assay: not given). Settings: inhibition of adhesion, YEG, 25°C, 6 hours.
Type: cell-based

Compound | EC50 (ppm)
CO/C=C(/C(=O)OC)c1ccccc1Oc1cc(Oc2ccccc2C#N)ncn1 [Azoxystrobin] | 0.064 ppm
N#Cc1c(Cl)c(Cl)c(Cl)c(C#N)c1Cl [Chlorothalonil] | 0.038 ppm
CO/N=C(/C(=O)OC)c1ccccc1COc1ccccc1C [Kresoxim-methyl] | 0.067 ppm
CCCN(CCOc1c(Cl)cc(Cl)cc1Cl)C(=O)n1ccnc1 [prochloraz] | >10.0 ppm
COC(=O)NC(=S)Nc1ccccc1NC(=S)NC(=O)OC [thiophanate-methyl] | 7.5 ppm

Same assay, conditions: statement in words

Compound | inhibition of germination-associated adhesion
CO/C=C(/C(=O)OC)c1ccccc1Oc1cc(Oc2ccccc2C#N)ncn1 [Azoxystrobin] | potent inhibitors of germination-associated adhesion
N#Cc1c(Cl)c(Cl)c(Cl)c(C#N)c1Cl [Chlorothalonil] | potent inhibitors of germination-associated adhesion
CO/N=C(/C(=O)OC)c1ccccc1COc1ccccc1C [Kresoxim-methyl] | potent inhibitors of germination-associated adhesion
CCCN(CCOc1c(Cl)cc(Cl)cc1Cl)C(=O)n1ccnc1 [prochloraz] | little or no activity
COC(=O)NC(=S)Nc1ccccc1NC(=S)NC(=O)OC [thiophanate-methyl] | little or no activity

What follows are compounds tested on Colletotrichum lagenarium spores (assay: Spore germination assay). Settings: 8 h, 40 ppm.
Type: cell-based

Compound | Germination EC50 (ppm)
CO/C=C(/C(=O)OC)c1ccccc1Oc1cc(Oc2ccccc2C#N)ncn1 [Azoxystrobin] | 0.010 ppm

Same assay, conditions: SDB with Tween 20 (40 ppm), 8 h

Compound | Germination EC50 (ppm)
N#Cc1c(Cl)c(Cl)c(Cl)c(C#N)c1Cl [Chlorothalonil] | 0.005 ppm
CO/N=C(/C(=O)OC)c1ccccc1COc1ccccc1C [Kresoxim-methyl] | 0.015 ppm

What follows are compounds tested on Botrytis cinerea spores (assay: Spore adhesion to borosilicate glass vials). Settings: 6 hours.
Type: cell-based

Compound | %Adhesion with kresoxim-methyl, 10 ppm
CO/N=C(/C(=O)OC)c1ccccc1COc1ccccc1C [Kresoxim-methyl] | 23.4%

Same assay, conditions: 7 hours

Compound | %Adhesion with kresoxim-methyl, 10 ppm
CO/N=C(/C(=O)OC)c1ccccc1COc1ccccc1C [Kresoxim-methyl] | 29.6%

Each compound was assayed on Botrytis cinerea spores (assay: Spore adhesion to polyethylene vials). Settings: 6 hours.
Type: cell-based

Compound | %Adhesion with kresoxim-methyl, 10 ppm
CO/N=C(/C(=O)OC)c1ccccc1COc1ccccc1C [Kresoxim-methyl] | 12.7%

Same assay, conditions: 7 hours

Compound | %Adhesion with kresoxim-methyl, 10 ppm
CO/N=C(/C(=O)OC)c1ccccc1COc1ccccc1C [Kresoxim-methyl] | 15.1%

The compounds below were run on Aspergillus nidulans spores (assay: Spore adhesion assay in 96-well polystyrene microtiter plates). Settings: statement in words.
Type: cell-based
Method: (§1) For adhesion assays in microtiter plates, stock solutions of test compounds were prepared in DMSO then diluted in SDB such that the DMSO concentration after dilution was ≤2%. Two-fold serial dilutions of these test compound solutions were made in SDB (100 µl) in 96-well flat-bottomed microtiter plates. Spore suspension (100 µl at 2X10^5 spores/ml) was added to the wells, and the plates were incubated at 25°C for 5.5 hours. The medium containing unbound spores was removed by inverting and flicking the microtiter plate to remove as much liquid as possible.
Various fungicides were evaluated for their abilities to inhibit spore adhesion in 96-well flat-bottomed polystyrene microtiter plates. Adhesion assays were conducted as outlined in Example 2 for Botrytis except that the spore inoculum was prepared at 2X10^6 spores/ml, and plates were incubated at 37°C for 8 h.

Compound | inhibition of spore adhesion
N#Cc1c(Cl)c(Cl)c(Cl)c(C#N)c1Cl [Chlorothalonil] | highly potent inhibitors of spore adhesion
CO/N=C(/C(=O)OC)c1ccccc1COc1ccccc1C [Kresoxim-methyl] | highly potent inhibitors of spore adhesion

The compounds below were run on Botrytis cinerea spores (assay: Spore adhesion assay in polystyrene counting vials (Coulter Counter)). Settings: 25°C, 5.5 h.
Type: cell-based
Method: (§2) Botrytis cinerea was grown at room temperature under fluorescent lights on potato dextrose agar (PDA), and subcultured every 14 days. To prepare spore suspensions, 20 ml sterile milliQ™ water was added to plates (10-14 days old) and the surface scraped gently with a sterile loop. The fluid was filtered through glass wool to remove mycelial fragments, then the spore density was adjusted to the desired concentration.
Various fungicides were evaluated for their abilities to inhibit germination-associated spore adhesion to polystyrene counting vials, polymethylpentene (Permanox®) chamber slides and 96-well flat-bottomed polystyrene microtiter plates, and for their effects on spore germination and mycelial growth (table below). Adhesion assays in chamber slides and germination assays were performed as in Example 1 with incubation at 25°C for 5.5 h. Adhesion assays in counting vials were conducted in 20 ml capacity polystyrene counting vials (VWR cat. no. 14310-640). Counting vials received 5 µl of DMSO (controls) or test compound dissolved in DMSO, followed by 500 µl of SDB. Aqueous spore suspension (500 µl) at 200,000 spores/ml was added, mixed gently and the vials or slides incubated at 25°C for 5.5 h. To determine the numbers of unbound spores 15 ml of counting fluid was added, vials were capped and inverted gently 5 times, then counted using a Coulter Counter®.

Compound | Inhn. of Spore Adhesion (EC50, ppm) Counting vials
CO/C=C(/C(=O)OC)c1ccccc1Oc1cc(Oc2ccccc2C#N)ncn1 [Azoxystrobin] | 0.19 ppm

Same assay, conditions: Botrytis cinerea, 25°C, 5.5 h, read-out: Inhn. of Spore Adhesion (EC50, ppm) Counting vials

Compound | EC50
N#Cc1c(Cl)c(Cl)c(Cl)c(C#N)c1Cl [Chlorothalonil] | 0.093 µg/mL (≈ 0.35 µM)
CO/N=C(/C(=O)OC)c1ccccc1COc1ccccc1C [Kresoxim-methyl] | 0.014 µg/mL (≈ 0.0447 µM)

These compounds were tested on Colletotrichum lagenarium spores (assay: Spore adhesion assay in 96-well polystyrene microtiter plates). Settings: SDB with Tween 20 (40 ppm), 8 h.
Type: cell-based
Method: as §1
Colletotrichum lagenarium was grown at 25°C in the dark on potato dextrose agar and subcultured every 7-14 days. To prepare spore suspensions, 15 ml sterile water was added to plates (7-10 days old) and the plates agitated gently on a gyrotary shaker for 10 min to release spores. The resulting spore suspension was filtered through glass wool and adjusted to the desired concentration. Spore adhesion assays and germination assays were conducted as outlined in Example 1 for Botrytis except that the SDB medium contained Tween™ 20 (40 ppm), and the spore inoculum was prepared at 5X10^5 spores/ml. Data in the table below show a time-dependent adhesion of spores to the slide which closely parallels the time-course for spore germination.
Various fungicides were evaluated for their abilities to inhibit spore adhesion in 96-well flat-bottomed polystyrene microtiter plates and Permanox® chamber slides, and for their effects on spore germination and mycelial growth. Assays were conducted as outlined in Example 2 for Botrytis except that the SDB medium contained Tween™ 20 (40 ppm), the spore inoculum was prepared at 5X10^5 spores/ml, and 8 h incubation was used for the adhesion and germination assays. For each compound tested, EC50 values for inhibition of adhesion to microtiter plates and chamber slides were similar. Spore adhesion was sensitive to all compounds which inhibited germination at low concentrations (<0.2 ppm).

Compound | Inhn. of Adhesion (EC50, ppm) Microtiter plates
CO/C=C(/C(=O)OC)c1ccccc1Oc1cc(Oc2ccccc2C#N)ncn1 [Azoxystrobin] | 0.027 ppm
N#Cc1c(Cl)c(Cl)c(Cl)c(C#N)c1Cl [Chlorothalonil] | 0.068 ppm
CO/N=C(/C(=O)OC)c1ccccc1COc1ccccc1C [Kresoxim-methyl] | 0.026 ppm

Each compound was assayed on Botrytis cinerea spores (assay: Spore germination assay (microscopic examination)). Settings: 25°C, 5.5 h.
Type: cell-based

Compound | Inhn. of Germination EC50 (ppm)
CO/C=C(/C(=O)OC)c1ccccc1Oc1cc(Oc2ccccc2C#N)ncn1 [Azoxystrobin] | 0.32 ppm

Same assay, conditions: Botrytis cinerea; 25°C, 5.5 h; read-out: Inhn. of Germination EC50 (ppm)

Compound | EC50
N#Cc1c(Cl)c(Cl)c(Cl)c(C#N)c1Cl [Chlorothalonil] | 0.067 µg/mL (≈ 0.252 µM)
CO/N=C(/C(=O)OC)c1ccccc1COc1ccccc1C [Kresoxim-methyl] | 0.02 µg/mL (≈ 0.0638 µM)

These compounds were tested on Botrytis (assay: Mycelial growth inhibition, poison agar assay). Settings: Botrytis, 72 h, read-out: Mycelial Growth Inhn. EC50 (ppm).
Method: Inhibition of mycelial growth was evaluated in poison agar assays. A 4-fold dilution series of each fungicide to be tested was prepared in DMSO and 125 µl of each dilution was added to 25 ml of molten malt extract agar (20 g malt extract, 20 g glucose, 1 g peptone and 20 g agar per liter). The medium containing test compound was poured immediately into 9 cm diameter petri dishes. Two replicate plates were used for each treatment. Each plate was inoculated with a 7 mm diameter plug taken from the growing edge of a Botrytis culture on PDA. Colony diameters were measured after growth for 3 days in the dark at 25°C. EC50 values were determined from dose-response curves.

Compound | EC50
N#Cc1c(Cl)c(Cl)c(Cl)c(C#N)c1Cl [Chlorothalonil] | 0.35 µg/mL (≈ 1.32 µM)
CO/N=C(/C(=O)OC)c1ccccc1COc1ccccc1C [Kresoxim-methyl] | 0.28 µg/mL (≈ 0.894 µM)

Same assay, conditions: malt extract agar, 3 days, 25°C

Compound | Mycelial Growth Inhn. EC50 (ppm)
CO/C=C(/C(=O)OC)c1ccccc1Oc1cc(Oc2ccccc2C#N)ncn1 [Azoxystrobin] | 3.05 ppm

The compounds below were run on Botrytis cinerea spores (assay: Spore adhesion to Plexiglas chamber slides). Settings: 7 hours.
Type: cell-based
Method: Assays were conducted in custom-made chamber slides made of Plexiglas®. Chamber slide wells received 5 µl of DMSO (controls) or kresoxim-methyl dissolved in DMSO, followed by 500 µl of SDB. Aqueous spore suspension (500 µl) at 200,000 spores/ml was added, mixed gently and the vials or slides incubated at 25°C for the desired period. The number of nonadhered spores was determined by transferring the fluid to a counting vial, washing the chamber slide well once by adding 1 ml of counting fluid to the well, shaking gently, and then adding the wash to the counting vial. Counting fluid (14 ml) was added to the vial, and the spores counted using a Coulter Counter®. The number of adhered spores was determined by subtracting the number of nonadhered spores from the total number of spores and was expressed as a percentage (% Adhesion).

Compound | %Adhesion with kresoxim-methyl, 10 ppm
CO/N=C(/C(=O)OC)c1ccccc1COc1ccccc1C [Kresoxim-methyl] | 17.4%

Same assay, conditions: 8 hours

Compound | %Adhesion with kresoxim-methyl, 10 ppm
CO/N=C(/C(=O)OC)c1ccccc1COc1ccccc1C [Kresoxim-methyl] | 26.2%

Each compound was assayed on Botrytis cinerea spores (assay: Spore adhesion to polypropylene vials). Settings: 7 hours.
Type: cell-based

Compound | %Adhesion with kresoxim-methyl, 10 ppm
CO/N=C(/C(=O)OC)c1ccccc1COc1ccccc1C [Kresoxim-methyl] | 18.9%

These compounds were tested on Botrytis cinerea spores (assay: Spore adhesion assay in 96-well polystyrene microtiter plates (sulforhodamine B)). Settings: 25°C, 5.5 hours.
Type: cell-based
Method: as §2, §1

Compound | Inhn. of Spore Adhesion (EC50, ppm) Microtiter plates
CO/C=C(/C(=O)OC)c1ccccc1Oc1cc(Oc2ccccc2C#N)ncn1 [Azoxystrobin] | 0.19 ppm

Same assay, conditions: Botrytis cinerea, 25°C, 5.5 hours, read-out: Inhn. of Spore Adhesion (EC50, ppm) Microtiter plates

Compound | EC50
N#Cc1c(Cl)c(Cl)c(Cl)c(C#N)c1Cl [Chlorothalonil] | 0.1 µg/mL (≈ 0.376 µM)
CO/N=C(/C(=O)OC)c1ccccc1COc1ccccc1C [Kresoxim-methyl] | 0.011 µg/mL (≈ 0.0351 µM)

These compounds were tested on Colletotrichum lagenarium (assay: Mycelial growth inhibition, poison agar assay). Settings: not given.
Type: cell-based

Compound | Mycelial Growth Inhn. EC50 (ppm)
CO/C=C(/C(=O)OC)c1ccccc1Oc1cc(Oc2ccccc2C#N)ncn1 [Azoxystrobin] | >10 ppm
N#Cc1c(Cl)c(Cl)c(Cl)c(C#N)c1Cl [Chlorothalonil] | 7.10 ppm
CO/N=C(/C(=O)OC)c1ccccc1COc1ccccc1C [Kresoxim-methyl] | >10 ppm

Each compound was assayed on Colletotrichum lagenarium spores (assay: not given). Settings: SDB with Tween 20 (40 ppm), 8 h.
Type: cell-based

Compound | Inhn. of Adhesion (EC50, ppm) Chamber slides
CO/C=C(/C(=O)OC)c1ccccc1Oc1cc(Oc2ccccc2C#N)ncn1 [Azoxystrobin] | 0.014 ppm
N#Cc1c(Cl)c(Cl)c(Cl)c(C#N)c1Cl [Chlorothalonil] | 0.104 ppm
CO/N=C(/C(=O)OC)c1ccccc1COc1ccccc1C [Kresoxim-methyl] | 0.054 ppm

The compounds below were run on Puccinia recondita (assay: Germination-associated spore adhesion assay in microtiter plates (sulforhodamine B)). Settings: inhibition of adhesion, 0.05% Tween 20, 19°C, 4 hours.
Type: cell-based

Compound | EC50 (ppm)
N#Cc1c(Cl)c(Cl)c(Cl)c(C#N)c1Cl [Chlorothalonil] | 0.473 ppm
CO/N=C(/C(=O)OC)c1ccccc1COc1ccccc1C [Kresoxim-methyl] | 0.016 ppm

Same assay, conditions: statement in words

Compound | inhibition of germination-associated adhesion
N#Cc1c(Cl)c(Cl)c(Cl)c(C#N)c1Cl [Chlorothalonil] | inhibited germination-associated adhesion
CO/N=C(/C(=O)OC)c1ccccc1COc1ccccc1C [Kresoxim-methyl] | inhibited germination-associated adhesion

What follows are compounds tested on Botrytis cinerea spores (assay: microbe, parasite or virus in culture). Settings: Botrytis cinerea, 5.5 h, read-out: Inhn. of Spore Adhesion (EC50, ppm) Chamber Slides.
Type: cell-based

Compound | EC50
N#Cc1c(Cl)c(Cl)c(Cl)c(C#N)c1Cl [Chlorothalonil] | 0.089 µg/mL (≈ 0.335 µM)
CO/N=C(/C(=O)OC)c1ccccc1COc1ccccc1C [Kresoxim-methyl] | 0.035 µg/mL (≈ 0.112 µM)

Same assay, conditions: Permanox chamber slides, 25°C, 5.5 h

Compound | Inhn. of Spore Adhesion (EC50, ppm) Chamber Slides
CO/C=C(/C(=O)OC)c1ccccc1Oc1cc(Oc2ccccc2C#N)ncn1 [Azoxystrobin] | 0.28 ppm
